Reference: patent US20240059671A1, “TYROSINE KINASE 2 (TYK2) DEGRADATION COMPOUNDS AND METHODS OF USE” (CULLGEN (SHANGHAI), INC., priority 2020, published 2024)

Target: TYK2 (Homo sapiens, UniProt P29597)
Experiment: TYK2 protein degradation in MOLT-4 cells by immunoblotting
Format: cell-based
Parameters: endogenous in cells; host or cells: MOLT-4
Details: MOLT-4 cells, 24 hours
Procedure, shortened: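 MOLT-4 cells were exposed to compounds at 0.5 and 5 μM for 24 h, then lysed in RIPA buffer with protease and phosphatase inhibitors. TYK2 was detected by SDS-PAGE immunoblot with chemiluminescence, and band densitometry gave percent degradation.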

Sequence of TYK2 (P29597 whole entry): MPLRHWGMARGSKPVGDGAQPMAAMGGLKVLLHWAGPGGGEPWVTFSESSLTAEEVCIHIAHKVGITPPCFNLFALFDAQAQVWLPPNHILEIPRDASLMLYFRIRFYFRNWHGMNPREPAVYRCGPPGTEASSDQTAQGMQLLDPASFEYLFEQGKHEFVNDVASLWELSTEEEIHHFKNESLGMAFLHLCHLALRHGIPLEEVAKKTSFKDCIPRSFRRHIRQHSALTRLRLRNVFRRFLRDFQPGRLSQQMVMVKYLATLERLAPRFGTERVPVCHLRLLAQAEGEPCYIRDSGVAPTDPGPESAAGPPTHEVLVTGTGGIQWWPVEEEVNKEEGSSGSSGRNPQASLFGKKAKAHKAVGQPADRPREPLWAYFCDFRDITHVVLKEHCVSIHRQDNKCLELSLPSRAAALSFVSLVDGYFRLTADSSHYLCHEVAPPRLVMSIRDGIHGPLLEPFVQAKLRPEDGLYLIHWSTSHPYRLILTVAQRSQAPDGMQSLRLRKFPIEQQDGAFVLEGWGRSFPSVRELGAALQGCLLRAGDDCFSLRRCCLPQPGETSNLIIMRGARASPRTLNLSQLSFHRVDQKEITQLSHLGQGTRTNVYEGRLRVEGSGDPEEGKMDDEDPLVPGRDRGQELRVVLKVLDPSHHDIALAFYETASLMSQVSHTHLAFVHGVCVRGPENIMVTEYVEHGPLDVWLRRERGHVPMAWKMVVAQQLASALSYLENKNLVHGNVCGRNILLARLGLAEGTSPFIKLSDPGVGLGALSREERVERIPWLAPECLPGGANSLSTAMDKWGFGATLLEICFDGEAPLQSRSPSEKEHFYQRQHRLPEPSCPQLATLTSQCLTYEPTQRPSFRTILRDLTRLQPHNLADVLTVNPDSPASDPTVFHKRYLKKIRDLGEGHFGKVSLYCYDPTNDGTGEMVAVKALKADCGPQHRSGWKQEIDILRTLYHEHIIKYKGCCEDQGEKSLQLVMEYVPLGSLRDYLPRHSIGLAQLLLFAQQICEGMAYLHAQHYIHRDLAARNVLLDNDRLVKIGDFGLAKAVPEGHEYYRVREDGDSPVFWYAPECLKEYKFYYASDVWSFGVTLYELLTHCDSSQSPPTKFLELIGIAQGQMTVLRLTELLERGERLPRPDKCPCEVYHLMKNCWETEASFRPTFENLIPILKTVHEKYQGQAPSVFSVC

SMILES | TYK2 Degradation (MOLT-4, 0.5 μM) | TYK2 Degradation (MOLT-4, 5 μM) | TYK2 Degradation (0.5 μM) [%] | TYK2 Degradation (5 μM) [%]
CNC(=O)c1nnc(NC(=O)C2CC2)cc1Nc1cccc(-c2ncn(CCNC(=O)CCCCCCC(=O)N[C@H](C(=O)N3C[C@H](O)C[C@H]3C(=O)NCc3ccc(-c4scnc4C)cc3)C(C)(C)C)n2)c1OC [CPD-079, N^1-(2-(3-(3-((6-(Cyclopropanecarboxamido)-3-(methylcarbamoyl)pyridazin-4-yl)amino)-2-methoxyphenyl)-1H-1,2,4-triazol-1-yl)ethyl)-N^8-((S)-1-((2S,4R)-4-hydroxy-2-((4-(4-methylthiazol-5-yl)benzyl)carbamoyl)pyrrolidin-1-yl)-3,3-dimethyl-1-oxobutan-2-yl)octanediamide] | C (C: ≤20% TYK2 degradation) | C (C: ≤20% TYK2 degradation) |  | 
CNC(=O)c1nnc(NC(=O)C2CC2)cc1Nc1cccc(-c2ncn(CCNC(=O)CCOCCOCCOCCOCCOCCC(=O)N[C@H](C(=O)N3C[C@H](O)C[C@H]3C(=O)NCc3ccc(-c4scnc4C)cc3)C(C)(C)C)n2)c1OC [CPD-074, N^1-(2-(3-(3-((6-(Cyclopropanecarboxamido)-3-(methylcarbamoyl)pyridazin-4-yl)amino)-2-methoxyphenyl)-1H-1,2,4-triazol-1-yl)ethyl)-N^19-((S)-1-((2S,4R)-4-hydroxy-2-((4-(4-methylthiazol-5-yl)benzyl)carbamoyl)pyrrolidin-1-yl)-3,3-dimethyl-1-oxobutan-2-yl)-4,7,10,13,16-pentaoxanonadecanediamide] |  |  | ≤20 | ≤20
CNC(=O)c1nnc(NC(=O)CNC(=O)CCOCCC(=O)N[C@H](C(=O)N2C[C@H](O)C[C@H]2C(=O)NCc2ccc(-c3scnc3C)cc2)C(C)(C)C)cc1Nc1cccc(-c2ncn(C)n2)c1OC [CPD-026, 6-(2-(3-(3-(((S)-1-((2S,4R)-4-Hydroxy-2-((4-(4-methylthiazol-5-yl)benzyl)carbamoyl)pyrrolidin-1-yl)-3,3-dimethyl-1-oxobutan-2-yl)amino)-3-oxopropoxy)propanamido)acetamido)-4-((2-methoxy-3-(1-methyl-1H-1,2,4-triazol-3-yl)phenyl)amino)-N-methylpyridazine-3-carboxamide] |  |  | ≤20 | ≤20
CNC(=O)c1nnc(NC(=O)C2CC2)cc1Nc1cccc(-c2ncn(CCNC(=O)CCOCCOCCOCCNc3ccc4c(c3)C(=O)N(C3CCC(=O)NC3=O)C4=O)n2)c1OC (centres unmarked) [CPD-020, 6-(Cyclopropanecarboxamido)-4-((3-(1-(1-((2-(2,6-dioxopiperidin-3-yl)-1,3-dioxoisoindolin-5-yl)amino)-12-oxo-3,6,9-trioxa-13-azapentadecan-15-yl)-1H-1,2,4-triazol-3-yl)-2-methoxyphenyl)amino)-N-methylpyridazine-3-carboxamide] |  |  | ≤20 | 
CNC(=O)c1nnc(NC(=O)C2CC2)cc1Nc1cccc(-c2ncn(CCNC(=O)CCOCCOCCOCCOCCNc3cccc4c3C(=O)N(C3CCC(=O)NC3=O)C4=O)n2)c1OC (centres unmarked) [CPD-011, 6-(Cyclopropanecarboxamido)-4-((3-(1-(1-((2-(2,6-dioxopiperidin-3-yl)-1,3-dioxoisoindolin-4-yl)amino)-15-oxo-3,6,9,12-tetraoxa-16-azaoctadecan-18-yl)-1H-1,2,4-triazol-3-yl)-2-methoxyphenyl)amino)-N-methylpyridazine-3-carboxamide] |  |  | ≤20 | 
CNC(=O)c1nnc(NC(=O)C2CC2)cc1Nc1cccc(-c2ncn(CCNC(=O)CCOCCNc3ccc4c(c3)C(=O)N(C3CCC(=O)NC3=O)C4=O)n2)c1OC (centres unmarked) [CPD-018, 6-(Cyclopropanecarboxamido)-4-((3-(1-(2-(3-(2-((2-(2,6-dioxopiperidin-3-yl)-1,3-dioxoisoindolin-5-yl)amino)ethoxy)propanamido)ethyl)-1H-1,2,4-triazol-3-yl)-2-methoxyphenyl)amino)-N-methylpyridazine-3-carboxamide] |  |  | ≤20 | 
CNC(=O)c1nnc(NC(=O)CNC(=O)CCOCCOCCNc2cccc3c2C(=O)N(C2CCC(=O)NC2=O)C3=O)cc1Nc1cccc(-c2ncn(C)n2)c1OC (centres unmarked) [CPD-050, 6-(2-(3-(2-(2-((2-(2,6-Dioxopiperidin-3-yl)-1,3-dioxoisoindolin-4-yl)amino)ethoxy)ethoxy)propanamido)acetamido)-4-((2-methoxy-3-(1-methyl-1H-1,2,4-triazol-3-yl)phenyl)amino)-N-methylpyridazine-3-carboxamide] |  |  | ≤20 | ≤20
CNC(=O)c1nnc(Nc2ccc(N3CCN(C(=O)CCCC(=O)N[C@H](C(=O)N4C[C@H](O)C[C@H]4C(=O)NCc4ccc(-c5scnc5C)cc4)C(C)(C)C)CC3)cn2)cc1Nc1cccc(-c2ncn(C)n2)c1OC [CPD-097, 6-((5-(4-(5-(((S)-1-((2S,4R)-4-Hydroxy-2-((4-(4-methylthiazol-5-yl)benzyl)carbamoyl)pyrrolidin-1-yl)-3,3-dimethyl-1-oxobutan-2-yl)amino)-5-oxopentanoyl)piperazin-1-yl)pyridin-2-yl)amino)-4-((2-methoxy-3-(1-methyl-1H-1,2,4-triazol-3-yl)phenyl)amino)-N-methylpyridazine-3-carboxamide] | B (B: <60% TYK2 degradation, and >20% TYK2 degradation) | C (C: ≤20% TYK2 degradation) |  | 
CNC(=O)c1nnc(NC(=O)CNC(=O)CCCCCCNc2cccc3c2C(=O)N(C2CCC(=O)NC2=O)C3=O)cc1Nc1cccc(-c2ncn(C)n2)c1OC (centres unmarked) [CPD-047, 6-(2-(7-((2-(2,6-dioxopiperidin-3-yl)-1,3-dioxoisoindolin-4-yl)amino)heptanamido)acetamido)-4-((2-methoxy-3-(1-methyl-H-1,2,4-triazol-3-yl)phenyl)amino)-N-methylpyridazine-3-carboxamide] |  |  | 60 | ≤20
CNC(=O)c1nnc(NC(=O)CNC(=O)CCCCNC(=O)C[C@H](NC(=O)[C@@H]2C[C@@H](O)CN2C(=O)[C@@H](NC(=O)C2(F)CC2)C(C)(C)C)c2ccc(-c3scnc3C)cc2)cc1Nc1cccc(-c2ncn(C)n2)c1OC [CPD-089, 6-(2-(5-((S)-3-((2S,4R)-1-((S)-2-(1-Fluorocyclopropane-1-carboxamido)-3,3-dimethylbutanoyl)-4-hydroxypyrrolidine-2-carboxamido)-3-(4-(4-methylthiazol-5-yl)phenyl)propanamido)pentanamido)acetamido)-4-((2-methoxy-3-(1-methyl-1H-1,2,4-triazol-3-yl)phenyl)amino)-N-methylpyridazine-3-carboxamide] | C (C: ≤20% TYK2 degradation) | C (C: ≤20% TYK2 degradation) |  | 
CNC(=O)c1nnc(NC(=O)CNC(=O)CCCCNc2ccc3c(c2)C(=O)N(C2CCC(=O)NC2=O)C3=O)cc1Nc1cccc(-c2ncn(C)n2)c1OC (centres unmarked) [CPD-057, 6-(2-(5-((2-(2,6-Dioxopiperidin-3-yl)-1,3-dioxoisoindolin-5-yl)amino)pentanamido)acetamido)-4-((2-methoxy-3-(1-methyl-1H-1,2,4-triazol-3-yl)phenyl)amino)-N-methylpyridazine-3-carboxamide] |  |  | ≤20 | ≤20
CNC(=O)c1nnc(NC(=O)C2CC2)cc1Nc1cccc(-c2ncn(CCNC(=O)CCC(=O)N[C@H](C(=O)N3C[C@H](O)C[C@H]3C(=O)NCc3ccc(-c4scnc4C)cc3)C(C)(C)C)n2)c1OC [CPD-075, N^1-(2-(3-(3-((6-(Cyclopropanecarboxamido)-3-(methylcarbamoyl)pyridazin-4-yl)amino)-2-methoxyphenyl)-1H-1,2,4-triazol-1-yl)ethyl)-N^4-((S)-1-((2S,4R)-4-hydroxy-2-((4-(4-methylthiazol-5-yl)benzyl)carbamoyl)pyrrolidin-1-yl)-3,3-dimethyl-1-oxobutan-2-yl)succinamide] |  |  | ≤20 | ≤20
CNC(=O)c1nnc(NC(=O)C2CC2)cc1Nc1cccc(-c2ncn(CCNC(=O)CCCCCCNc3cccc4c3C(=O)N(C3CCC(=O)NC3=O)C4=O)n2)c1OC (centres unmarked) [CPD-006, 6-(Cyclopropanecarboxamido)-4-((3-(1-(2-(7-((2-(2,6-dioxopiperidin-3-yl)-1,3-dioxoisoindolin-4-yl)amino)heptanamido)ethyl)-1H-1,2,4-triazol-3-yl)-2-methoxyphenyl)amino)-N-methylpyridazine-3-carboxamide] |  |  | ≤20 | 
CNC(=O)c1nnc(NC(=O)CNC(=O)COCCOCCOCCOCCOCC(=O)N[C@H](C(=O)N2C[C@H](O)C[C@H]2C(=O)NCc2ccc(-c3scnc3C)cc2)C(C)(C)C)cc1Nc1cccc(-c2ncn(C)n2)c1OC [CPD-032, N^1—((S)-1-((2S,4R)-4-Hydroxy-2-((4-(4-methylthiazol-5-yl)benzyl)carbamoyl)pyrrolidin-1-yl)-3,3-dimethyl-1-oxobutan-2-yl)-N^17-(2-((5-((2-methoxy-3-(1-methyl-1H-1,2,4-triazol-3-yl)phenyl)amino)-6-(methylcarbamoyl)pyridazin-3-yl)amino)-2-oxoethyl)-3,6,9,12,15-pentaoxaheptadecanediamide] |  |  | ≤20 | ≤20
CNC(=O)c1nnc(NC(=O)C2CC2)cc1Nc1cccc(-c2ncn(CCNC(=O)CCCCCCCC(=O)N[C@H](C(=O)N3C[C@H](O)C[C@H]3C(=O)NCc3ccc(-c4scnc4C)cc3)C(C)(C)C)n2)c1OC [CPD-080, N^1-(2-(3-(3-((6-(Cyclopropanecarboxamido)-3-(methylcarbamoyl)pyridazin-4-yl)amino)-2-methoxyphenyl)-1H-1,2,4-triazol-1-yl)ethyl)-N^9-((S)-1-((2S,4R)-4-hydroxy-2-((4-(4-methylthiazol-5-yl)benzyl)carbamoyl)pyrrolidin-1-yl)-3,3-dimethyl-1-oxobutan-2-yl)nonanediamide] | C (C: ≤20% TYK2 degradation) | C (C: ≤20% TYK2 degradation) |  | 
